These results are taken from patent publication US12097193B2, “Methods for the administration of COMT inhibitors” (BIAL—PORTELA & CA, S.A., priority 2018, dated 2024).

Series [1] is described as follows: Phase 1 two-period crossover study of the effect of quinidine on the pharmacokinetics of opicapone (plasma PK). The series is classed as in vivo, human. The conditions noted are these: for AUC(0-inf) / AUC(0-t) / Cmax / half-life: plasma, 50 mg. The text has this:
A Phase 1, Randomized, Open-Label, Two-Period Crossover Study to Assess the Effect of Quinidine on the Pharmacokinetics of Opicapone (OPC) in Healthy Subjects
This was a Phase 1, randomized, open-label, 2-period crossover drug interaction study of the effect of quinidine on the PK of OPC in healthy subjects. A total of 20 subjects (10 males and 10 females) were randomized to 1 of 2 treatment sequences (5 males and 5 females per sequence) as depicted in the table below. Randomization to treatment sequence were stratified by gender. Enrolled subjects received a single dose of each of the following treatments under fasted conditions: OPC 50 mg and quinidine 600 mg plus OPC 50 mg (OPC will be administered 1 hour after quinidine). There was be a 14-day washout between the doses in each treatment period.
Subjects fasted overnight for at least 10 hours before OPC dosing on Day 1 and continued to fast for an additional 4 hours after OPC dosing.
Blood samples for the assessment of plasma concentrations of OPC and its metabolites were collected within 30 minutes predose and approximately 0.5, 1, 1.5, 2, 3, 4, 6, 8, 10, 12, 24, 48, 72, 96, and 120 hours postdose. The PK parameters to be calculated included the following for OPC and its metabolites:
Blood samples for the assessment of plasma concentrations of OPC and its metabolites were collected within 30 minutes predose and approximately 0.5, 1, 1.5, 2, 3, 4, 6, 8, 10, 12, 24, 48, 72, 96, and 120 hours postdose.
The following plasma PK parameters were calculated only for OPC: • Apparent systemic clearance after oral administration (CL/F). • Apparent volume of distribution during the terminal phase after oral administration (Vz/F).
PK parameters for OPC and its metabolites were calculated using noncompartmental methods. […] Safety data will be summarized with descriptive statistics.
Pharmacokinetic parameters (AUC0-inf, AUC0-t, and Cmax) for Opicapone were natural log-transformed prior to analysis and evaluated separately using a linear mixed effects model with fixed effects terms for sequence, period, and treatment. […] CV %=SQRT[exp(s^2)−1]×100 and ‘s’ is the standard deviation of the log-transformed values.

For a further series, the target named is T1, OATP1B1 (Homo sapiens, UniProt Q9Y6L6).
T1 sequence (Q9Y6L6 1-691): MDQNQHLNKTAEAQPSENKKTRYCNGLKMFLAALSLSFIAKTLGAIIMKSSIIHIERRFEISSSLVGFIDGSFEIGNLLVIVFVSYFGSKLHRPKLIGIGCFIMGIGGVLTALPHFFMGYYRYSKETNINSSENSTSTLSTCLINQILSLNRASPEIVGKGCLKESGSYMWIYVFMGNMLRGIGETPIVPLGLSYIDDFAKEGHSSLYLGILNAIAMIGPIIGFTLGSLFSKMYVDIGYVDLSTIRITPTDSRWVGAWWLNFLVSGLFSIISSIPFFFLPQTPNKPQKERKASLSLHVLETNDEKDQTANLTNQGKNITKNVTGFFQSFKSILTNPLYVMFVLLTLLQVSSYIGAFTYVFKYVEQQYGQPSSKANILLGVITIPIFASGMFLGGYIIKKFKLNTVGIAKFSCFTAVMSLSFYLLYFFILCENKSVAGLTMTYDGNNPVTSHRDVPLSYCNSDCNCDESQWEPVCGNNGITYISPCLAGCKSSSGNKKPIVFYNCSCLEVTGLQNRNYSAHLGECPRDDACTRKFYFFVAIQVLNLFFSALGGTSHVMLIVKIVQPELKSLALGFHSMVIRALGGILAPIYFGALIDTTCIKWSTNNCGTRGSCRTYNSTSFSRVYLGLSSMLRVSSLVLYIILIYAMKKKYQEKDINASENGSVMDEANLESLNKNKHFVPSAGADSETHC
To be noted: in vitro; cited from earlier work.

The target of a further series is T2, OATP1B3 (Homo sapiens, UniProt Q9NPD5).
T2 sequence (Q9NPD5 1-702): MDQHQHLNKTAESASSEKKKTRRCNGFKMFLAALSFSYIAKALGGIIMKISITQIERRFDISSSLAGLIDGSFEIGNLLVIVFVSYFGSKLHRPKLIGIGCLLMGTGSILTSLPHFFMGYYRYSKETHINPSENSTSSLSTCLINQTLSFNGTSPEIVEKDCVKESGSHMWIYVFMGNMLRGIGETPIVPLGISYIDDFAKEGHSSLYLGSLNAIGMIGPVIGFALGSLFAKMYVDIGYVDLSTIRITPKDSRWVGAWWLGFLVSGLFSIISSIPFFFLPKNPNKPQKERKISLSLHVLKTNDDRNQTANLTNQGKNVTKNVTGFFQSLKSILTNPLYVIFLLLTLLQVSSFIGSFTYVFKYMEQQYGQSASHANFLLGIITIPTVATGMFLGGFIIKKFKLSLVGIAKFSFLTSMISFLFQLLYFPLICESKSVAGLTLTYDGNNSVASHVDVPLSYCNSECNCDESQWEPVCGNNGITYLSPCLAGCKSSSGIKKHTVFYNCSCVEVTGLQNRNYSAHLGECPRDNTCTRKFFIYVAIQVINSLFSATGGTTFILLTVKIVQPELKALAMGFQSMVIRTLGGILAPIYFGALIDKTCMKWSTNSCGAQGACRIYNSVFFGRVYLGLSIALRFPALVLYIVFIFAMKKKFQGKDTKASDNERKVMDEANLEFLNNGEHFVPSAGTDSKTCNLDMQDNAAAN
To be noted: in vitro; cited from earlier work.

Series [2] has as its target P-gp/MDR1 efflux transporter (Homo sapiens, UniProt P08183). The conditions noted are these: in vitro; cited from earlier work.
The next series deals with T3, BCRP (Homo sapiens, UniProt Q9UNQ0).
T3 sequence (Q9UNQ0 1-655): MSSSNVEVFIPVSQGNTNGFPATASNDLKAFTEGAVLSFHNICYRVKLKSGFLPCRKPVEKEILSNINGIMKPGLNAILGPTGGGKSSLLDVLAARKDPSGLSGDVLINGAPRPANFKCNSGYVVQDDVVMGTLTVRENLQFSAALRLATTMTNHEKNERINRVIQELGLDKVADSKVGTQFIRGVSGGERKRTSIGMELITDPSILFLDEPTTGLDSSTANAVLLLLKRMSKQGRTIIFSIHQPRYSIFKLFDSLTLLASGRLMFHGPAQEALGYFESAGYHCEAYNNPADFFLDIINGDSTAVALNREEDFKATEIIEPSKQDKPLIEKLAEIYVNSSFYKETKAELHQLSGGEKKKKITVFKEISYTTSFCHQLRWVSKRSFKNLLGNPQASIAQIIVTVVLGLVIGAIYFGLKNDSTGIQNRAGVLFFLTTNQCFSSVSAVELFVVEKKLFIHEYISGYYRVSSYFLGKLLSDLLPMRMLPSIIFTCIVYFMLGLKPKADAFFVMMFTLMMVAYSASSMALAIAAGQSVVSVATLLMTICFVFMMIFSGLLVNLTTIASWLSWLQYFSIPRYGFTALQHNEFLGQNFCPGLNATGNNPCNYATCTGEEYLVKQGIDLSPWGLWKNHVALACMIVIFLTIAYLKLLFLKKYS
The conditions noted are these: in vitro; cited from earlier work.

Where two headings read alike, the source gives them in different places.

Sequence of P-gp/MDR1 efflux transporter (P08183 whole entry): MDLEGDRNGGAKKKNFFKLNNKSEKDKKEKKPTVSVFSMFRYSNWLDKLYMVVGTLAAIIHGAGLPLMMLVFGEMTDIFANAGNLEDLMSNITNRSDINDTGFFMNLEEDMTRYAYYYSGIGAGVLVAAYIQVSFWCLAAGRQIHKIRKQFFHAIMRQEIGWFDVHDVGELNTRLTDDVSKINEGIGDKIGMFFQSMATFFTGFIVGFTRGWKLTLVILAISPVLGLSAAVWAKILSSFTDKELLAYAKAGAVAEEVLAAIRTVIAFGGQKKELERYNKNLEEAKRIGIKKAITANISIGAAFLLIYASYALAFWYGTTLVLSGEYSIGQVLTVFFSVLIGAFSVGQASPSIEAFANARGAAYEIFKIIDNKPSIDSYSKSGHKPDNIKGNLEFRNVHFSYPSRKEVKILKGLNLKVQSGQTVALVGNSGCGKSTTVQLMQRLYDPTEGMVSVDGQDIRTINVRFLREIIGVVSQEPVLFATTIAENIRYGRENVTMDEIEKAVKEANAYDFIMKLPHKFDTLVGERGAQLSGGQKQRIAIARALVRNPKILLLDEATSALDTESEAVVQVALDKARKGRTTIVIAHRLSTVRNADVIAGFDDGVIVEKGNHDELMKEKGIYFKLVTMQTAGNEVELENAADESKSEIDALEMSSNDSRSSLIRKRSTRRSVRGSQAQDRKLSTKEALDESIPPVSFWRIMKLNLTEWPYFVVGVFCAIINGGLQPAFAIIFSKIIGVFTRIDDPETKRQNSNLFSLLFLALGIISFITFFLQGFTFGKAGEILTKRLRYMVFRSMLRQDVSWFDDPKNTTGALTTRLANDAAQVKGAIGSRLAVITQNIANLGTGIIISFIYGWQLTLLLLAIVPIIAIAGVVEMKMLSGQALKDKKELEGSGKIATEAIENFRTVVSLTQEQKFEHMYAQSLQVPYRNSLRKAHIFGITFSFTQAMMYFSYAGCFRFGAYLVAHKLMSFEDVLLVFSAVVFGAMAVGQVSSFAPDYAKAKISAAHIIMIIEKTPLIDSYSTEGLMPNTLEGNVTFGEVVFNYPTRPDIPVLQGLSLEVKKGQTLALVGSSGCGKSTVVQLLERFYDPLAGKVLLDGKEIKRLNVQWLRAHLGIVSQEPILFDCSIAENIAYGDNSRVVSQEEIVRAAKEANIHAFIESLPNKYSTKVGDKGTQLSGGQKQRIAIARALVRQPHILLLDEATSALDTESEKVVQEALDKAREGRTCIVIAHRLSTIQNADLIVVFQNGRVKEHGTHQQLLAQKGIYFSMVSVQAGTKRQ

For the molecule `Cc1c(Cl)c(C)[n+]([O-])c(Cl)c1-c1noc(-c2cc(O)c(O)c([N+](=O)[O-])c2)n1` [OPC, 5-[3-(2,5-dichloro-4,6-dimethyl-1-oxy-pyridin-3-yl)-[1,2,4]oxadiazol-5-yl]-3-nitrobenzene-1,2-diol], the Tmax in series [1] (both sexes, human, oral, opicapone in plasma, healthy subjects, fasted, single dose OPC 50 mg, Median) turned out to be 91.8 min. The AUC(0-inf) in series [1] (both sexes, human, oral, opicapone in plasma, healthy subjects, fasted, single dose OPC 50 mg, Geometric Mean (descriptive), read-out: AUC(0-inf), Geometric Mean) stood at 2060 ng·h/mL; in series [1] (both sexes, human, oral, opicapone in plasma, healthy subjects, fasted, single dose OPC 50 mg, Mean, read-out: AUC(0-inf), Mean), 2140 ng·h/mL; in series [1] (both sexes, human, oral, opicapone in plasma, healthy subjects, fasted, single dose OPC 50 mg, Median, read-out: AUC(0-inf), Median), 2020 ng·h/mL; in series [1] (both sexes, human, oral, opicapone, geometric mean from linear mixed effects model, OPC 50 mg, healthy subjects, read-out: AUC0-inf, GM), 2030 ng·h/mL. Further, the AUC(0-t) in series [1] (both sexes, human, oral, opicapone in plasma, healthy subjects, fasted, single dose OPC 50 mg, Geometric Mean (descriptive), read-out: AUC(0-last), Geometric Mean) amounted to 1960 ng·h/mL; in series [1] (both sexes, human, oral, opicapone in plasma, healthy subjects, fasted, single dose OPC 50 mg, Mean, read-out: AUC(0-last), Mean), 2040 ng·h/mL; in series [1] (both sexes, human, oral, opicapone in plasma, healthy subjects, fasted, single dose OPC 50 mg, Median, read-out: AUC(0-last), Median), 1940 ng·h/mL; in series [1] (both sexes, human, oral, opicapone, geometric mean from linear mixed effects model, OPC 50 mg, healthy subjects, read-out: AUC0-t, GM) it was 1960 ng·h/mL. Further, the Cmax in series [1] (both sexes, human, oral, opicapone in plasma, healthy subjects, fasted, single dose OPC 50 mg, Geometric Mean (descriptive), read-out: Cmax, Geometric Mean) worked out at 766 ng/mL; in series [1] (both sexes, human, oral, opicapone in plasma, healthy subjects, fasted, single dose OPC 50 mg, Mean, read-out: Cmax, Mean), 804 ng/mL; in series [1] (both sexes, human, oral, opicapone in plasma, healthy subjects, fasted, single dose OPC 50 mg, Median, read-out: Cmax, Median), 782 ng/mL; in series [1] (both sexes, human, oral, opicapone, geometric mean from linear mixed effects model, OPC 50 mg, healthy subjects, read-out: Cmax, GM) it was 766 ng/mL. Further, the half-life in series [1] (both sexes, human, oral, opicapone in plasma, healthy subjects, fasted, single dose OPC 50 mg, Geometric Mean (descriptive), read-out: t½, Geometric Mean (converted)) is 53.2 min; in series [1] (both sexes, human, oral, opicapone in plasma, healthy subjects, fasted, single dose OPC 50 mg, Mean, read-out: t½, Mean (converted)), 55.1 min; in series [1] (both sexes, human, oral, opicapone in plasma, healthy subjects, fasted, single dose OPC 50 mg, Median, read-out: t½, Median (converted)), 55.9 min. In addition, the “decrease in opicapone exposure” value in series [1] (in those also being administered quinidine) is given as “approximately 30%”. In series [1] (opicapone in plasma, healthy subjects, fasted, single dose OPC 50 mg, Median), the “Tlag, Median” value is on record as 0.00 h. On OATP1B1, the “transported by OATP1B1” value is “not transported”. Besides, at OATP1B3, the “transported by OATP1B3” value is reported as “transported”. Also, the “efflux transported by P-gp (P-gp/MDR1 substrate)” value in series [2] was “efflux transported”. Further, on BCRP, the “efflux transported by BCRP” value is recorded as “efflux transported”.

`Cc1c(Cl)c(C)[n+]([O-])c(Cl)c1-c1noc(-c2cc(OS(=O)(=O)O)c(O)c([N+](=O)[O-])c2)n1` [BIA 9-1103]: the “transported by OATP1B1” value at OATP1B1 is given as “transported”. The “transported by OATP1B3” value at OATP1B3 is “transported”. Further, the “efflux transported by P-gp (P-gp/MDR1 substrate)” value in series [2] is given as “not a substrate”. Also, at BCRP, the “efflux transported by BCRP” value is listed as “efflux transported”.
